Measurements as given in patent US20130096105A1, “ArylSulfonamide Based Matrix Metalloprotease Inhibitors” (NOVARTIS AG, priority 2008, published 2013).

Tests used:
[1] = target: T1, Gelatinase (MMP-2) (Homo sapiens, UniProt P08253); assay: Gelatinase (MMP-2) inhibitory activity, fluorogenic peptide substrate cleavage; assay type: biochemical; conditions: read-out: MMP02 IC50
T1 sequence (P08253 110-660): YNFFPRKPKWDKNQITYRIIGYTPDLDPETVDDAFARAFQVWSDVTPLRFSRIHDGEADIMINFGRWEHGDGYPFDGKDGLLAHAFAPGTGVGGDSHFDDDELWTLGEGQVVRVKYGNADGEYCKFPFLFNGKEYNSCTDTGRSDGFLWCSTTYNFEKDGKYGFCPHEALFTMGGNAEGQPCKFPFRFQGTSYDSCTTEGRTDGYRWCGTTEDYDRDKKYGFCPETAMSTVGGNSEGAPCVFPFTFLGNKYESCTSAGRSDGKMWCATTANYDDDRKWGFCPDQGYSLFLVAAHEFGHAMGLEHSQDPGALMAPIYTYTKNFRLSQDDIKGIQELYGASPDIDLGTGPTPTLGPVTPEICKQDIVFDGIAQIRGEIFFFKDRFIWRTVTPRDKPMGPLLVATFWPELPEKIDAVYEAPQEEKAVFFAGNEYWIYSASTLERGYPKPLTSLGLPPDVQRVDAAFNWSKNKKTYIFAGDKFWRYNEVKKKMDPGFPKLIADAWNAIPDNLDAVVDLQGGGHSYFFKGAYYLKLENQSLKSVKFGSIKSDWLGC
Procedure: (§1) Gelatinase (MMP-2) inhibitory activities can be determined as follows: Stock solutions of substrate (MCA-Lys-Pro-Leu-Gly-Leu-Dpa-Ala-Arg-NH2) are prepared in DMSO at a concentration of 1.4 mM. Stock solutions of inhibitors (0.03 μM-3 mM) are also prepared in DMSO. The inhibitors are diluted into the assay solutions, and the controls use an equal volume of DMSO so that the final DMSO concentration from the inhibitor and substrate dilutions in all assays is 1.0%. Assays are performed in an assay buffer (100 mM sodium chloride, 10 μM ZnCl. Sub 2, 10 mM CaCl2, 100 mM Tris-Cl pH7.5, 0.05% Brij-35), containing 1.0% DMSO from the substrate and inhibitor additions. The substrate concentration used in the assays is 5 μM. The assays are carried out at 20-25° C. The fluorescence changes, as a result of substrate cleavage, are monitored using an excitation wavelength of 325 nm and an emission wavelength of 405 nm. The reaction mixtures are added in duplicate into appropriate wells of a 384-well assay plate. The reaction mixtures are preincubated with the inhibitors for 60 minutes The reactions are started by the addition of MMP substrate, and the fluorescence intensity changes are measured after 60 minutes The apparent enzyme activity in the presence of an inhibitor is then compared with that in the absence of any inhibitor to determine the inhibition effect of the inhibitor. These techniques are within the knowledge of one skilled in the art. The inhibition results are expressed as the inhibitor concentrations required to effect 50% inhibition (IC50) of the enzyme activity, as compared with the control (non-inhibited) reactions.

[2] = target: Collagenase-3 (MMP-13) (Homo sapiens, UniProt P45452); assay: Collagenase-3 (MMP-13) inhibitory activity, fluorogenic peptide substrate cleavage; assay type: biochemical; conditions: read-out: MMP13 IC50
Procedure: as §1
Collagenase-3 (MMP-13) inhibitory activity is determined as described above. Recombinant pro-collagenase-3 is activated with 1 mM APMA, and stored in the assay buffer after extensive dialysis in the assay buffer.

| Molecule | IC50 [1] | IC50 [2] |
| --- | --- | --- |
| 2-Chloro-5-(3-hydroxy-4-methoxy-benzoyl)-benzenesulfonamide [Example 56] | > 30 µM | 26.7 µM |
| 2-Chloro-5-(4-cyclopropyl-benzoyl)-benzenesulfonamide [Example 27] | 7.46 µM | 9.64 µM |
| 2-Chloro-5-(4-pyridin-4-yl-benzoyl)-benzenesulfonamide [Example 42] | 0.51 µM | 1.5 µM |
| 2-Chloro-5-(4-thiophen-2-yl-benzoyl)-benzenesulfonamide [Example 39] | 13.3 µM | 9.06 µM |
| COc1ccc(C(=O)c2ccc(F)c(S(N)(=O)=O)c2)cc1 [Example 2, 2-Fluoro-5-(4-methoxy-benzoyl)-benzenesulfonamide] | 2.41 µM | 1.59 µM |
| COc1ccc(C(=O)c2cc(F)c(F)c(S(N)(=O)=O)c2)cc1 [Example 4, 2,3-Difluoro-5-(4-methoxy-benzoyl)-benzenesulfonamide] | 4.68 µM | 5.73 µM |
| COc1ccc(C(=O)c2ccc([N+](=O)[O-])c(S(N)(=O)=O)c2)cc1 [Example 5, 5-(4-Methoxy-benzoyl)-2-nitro-benzenesulfonamide] | 1.06 µM | 1.39 µM |
| COc1ccc(C(=O)c2ccc(C)c(S(N)(=O)=O)c2)cc1 [Example 6, 5-(4-Methoxy-benzoyl)-2-methyl-benzenesulfonamide] | 2.78 µM | 4.51 µM |
| COc1ccc(C(=O)c2ccc(SC)c(S(N)(=O)=O)c2)cc1 [Example 7, 5-(4-Methoxy-benzoyl)-2-methylsulfanyl-benzenesulfonamide] | 2.36 µM | 3.72 µM |
| COc1ccc(C(=O)c2ccc([S+](C)[O-])c(S(N)(=O)=O)c2)cc1 (stereo not drawn) [Example 8, 2-Methanesulfinyl-5-(4-methoxy-benzoyl)-benzenesulfonamide] | 4.48 µM | 10.7 µM |
| COc1ccc(C(=O)c2ccc(S(C)(=O)=O)c(S(N)(=O)=O)c2)cc1 [Example 9, 2-Methanesulfonyl-5-(4-methoxy-benzoyl)-benzenesulfonamide] | 2.93 µM | 11.3 µM |
| CC(C)COc1ccc(C(=O)c2ccc(Cl)c(S(N)(=O)=O)c2)cc1 [Example 17, 2-Chloro-5-(4-isobutoxy-benzoyl)-benzenesulfonamide] | 2.3 µM | 3.71 µM |
| CC(C)CCOc1ccc(C(=O)c2ccc(Cl)c(S(N)(=O)=O)c2)cc1 [Example 18, 2-Chloro-5-[4-(3-methyl-butoxy)-benzoyl]-benzenesulfonamide] | 0.7 µM | 0.6 µM |
| C[Si](C)(C)C#Cc1ccc(C(=O)c2ccc(Cl)c(S(N)(=O)=O)c2)cc1 [Example 30, 2-Chloro-5-(4-trimethyl-silanylethynyl-benzoyl)-benzenesulfonamide] | 1.23 µM | 1.69 µM |

Other lines, results leading:

| IC50 [1] | IC50 [2] | Molecule |
| --- | --- | --- |
| 3.4 µM | 0.03 µM | Cc1cc(-c2c[nH]c3cc(C(=O)c4cccc(S(N)(=O)=O)c4)ccc23)ccn1 [Example 10, 3-[3-(2-Methyl-pyridin-4-yl)-1H-indole-6-carbonyl]-benzenesulfonamide] |
| 3.95 µM | 0.075 µM | COCCCc1cc(-c2c[nH]c3cc(C(=O)c4cccc(S(N)(=O)=O)c4)ccc23)ccn1 [Example 11, 3-{3-[2-(3-Methoxy-propyl)-pyridin-4-yl]-1H-indole-6-carbonyl}-benzenesulfonamide] |
| 9.13 µM | 3.04 µM | COc1ccc(C(=O)c2ccc(Cl)c(S(=O)(=O)NCCc3ccccc3)c2)cc1 [Example 12, 2-Chloro-5-(4-methoxy-benzoyl)-N-phenethyl-benzenesulfonamide] |
| 8.8 µM | 6.9 µM | COc1ccc(C(=O)c2ccc(Cl)c(S(=O)(=O)NCCc3ccc(F)cc3)c2)cc1 [Example 13, 2-Chloro-N-[2-(4-fluoro-phenyl)-ethyl]-5(4-methoxy-benzoyl)-benzenesulfonamide] |
| 0.8 µM | 0.01 µM | NS(=O)(=O)c1cccc(C(=O)c2ccc3c(-c4ccnc(CCCN5CCOCC5)c4)c[nH]c3c2)c1 [Example 14, 3-{3-[2-(3-Morpholin-4-yl-propyl)-pyridin-4-yl]-1H-indole-6-carbonyl}-benzenesulfonamide] |
| 5.16 µM | 10 µM | NS(=O)(=O)c1cc(C(=O)c2ccc(O)cc2)ccc1Cl [Example 15, 2-Chloro-5-(4-hydroxy-benzoyl)-benzenesulfonamide] |
| 1.58 µM | 1.22 µM | NS(=O)(=O)c1cc(C(=O)c2ccc(OCCCc3ccccc3)cc2)ccc1Cl [Example 19, 2-Chloro-5-[4-(3-phenyl-propoxy)-benzoyl]-benzenesulfonamide] |
| 11 µM | 13.6 µM | CCCCCOc1ccc(C(=O)c2ccc(Cl)c(S(N)(=O)=O)c2)cc1 [Example 20, 2-Chloro-5-(4-pentyloxy-benzoyl)-benzenesulfonamide] |
| 4.73 µM | 0.86 µM | CCCCCCOc1ccc(C(=O)c2ccc(Cl)c(S(N)(=O)=O)c2)cc1 [Example 21, 2-Chloro-5-(4-hexyloxy-benzoyl)-benzenesulfonamide] |
| 14 µM | 2.05 µM | NS(=O)(=O)c1cc(C(=O)c2ccc(Br)cc2)ccc1Cl [Example 22, 5-(4-Bromo-benzoyl)-2-chloro-benzenesulfonamide] |
| 4.15 µM | 0.95 µM | NS(=O)(=O)c1cc(C(=O)c2ccc(Br)cc2)ccc1Cl [Example 23, 5-(4-Bromo-benzoyl)-2-chloro-benzenesulfonamide] |
| 9.16 µM | 2.1 µM | Cc1cccc(C(=O)c2ccc(Cl)c(S(N)(=O)=O)c2)c1 [Example 24, 2-Chloro-5-(3-methyl-benzoyl)-benzenesulfonamide] |
| 2.17 µM | 5.3 µM | NS(=O)(=O)c1cc(C(=O)c2ccc(OC(F)(F)F)cc2)ccc1Cl [Example 25, 2-Chloro-5-(4-trifluoromethoxy-benzoyl)-benzenesulfonamide] |
| 17.2 µM | 10.5 µM | CC(C)(C)c1ccc(C(=O)c2ccc(Cl)c(S(N)(=O)=O)c2)cc1 [Example 26, 5-(4-tert-Butyl-benzoyl)-2-chloro-benzenesulfonamide] |
| 4.26 µM | 4.49 µM | NS(=O)(=O)c1cc(C(=O)c2ccc(C3CCCC3)cc2)ccc1Cl [Example 28, 2-Chloro-5-(4-cyclopentyl-benzoyl)-benzenesulfonamide] |
| 13.3 µM | 11.3 µM | NS(=O)(=O)c1cc(C(=O)c2ccc(C3CCCCC3)cc2)ccc1Cl [Example 29, 2-Chloro-5-(4-cyclohexyl-benzoyl)-benzenesulfonamide] |
| 8.3 µM | 10 µM | NS(=O)(=O)c1cc(C(=O)c2ccc(C#Cc3ccccc3)cc2)ccc1Cl [Example 32, 2-Chloro-5-(4-phenylethynyl-benzoyl)-benzenesulfonamide] |
| > 30 µM | 2.59 µM | CCCNC(=O)c1ccc(C(=O)c2ccc(Cl)c(S(N)(=O)=O)c2)cc1 [Example 33, 4-(4-Chloro-3-sulfamoyl-benzoyl)-N-propyl-benzamide] |
| 2.51 µM | 4.71 µM | NS(=O)(=O)c1cc(C(=O)c2ccc(C(=O)Nc3ccccc3)cc2)ccc1Cl [Example 34, 4-(4-Chloro-3-sulfamoyl-benzoyl)-N-phenyl-benzamide] |
| > 30 µM | – | CCc1nn(Cc2ccccc2)c2cc(C(=O)c3ccc(Cl)c(S(N)(=O)=O)c3)ccc12 [Example 111, 5-(1-Benzyl-3-ethyl-1H-indazole-6-carbonyl)-2-chloro-benzenesulfonamide] |
| – | 0.129 µM | NS(=O)(=O)c1cc(C(=O)c2ccc3c(CCC4CCCC4)n[nH]c3c2)ccc1Cl [Example 112, 2-Chloro-5-[3-(2-cyclopentyl-ethyl)-1H-indazole-6-carbonyl]-benzenesulfonamide] |
| – | 1.6 µM | NS(=O)(=O)c1cc(C(=O)c2ccc3c(-c4ccsc4)c[nH]c3c2)ccc1Cl [Example 127, 2-Chloro-5-(3-thiophen-3-yl-1H-indole-6-carbonyl)-benzenesulfonamide] |
